The target of the assay is T1, human CCR7 (Homo sapiens, UniProt P32248).
T1 construct: expressed in transfected cells
T1 sequence (P32248 25-378): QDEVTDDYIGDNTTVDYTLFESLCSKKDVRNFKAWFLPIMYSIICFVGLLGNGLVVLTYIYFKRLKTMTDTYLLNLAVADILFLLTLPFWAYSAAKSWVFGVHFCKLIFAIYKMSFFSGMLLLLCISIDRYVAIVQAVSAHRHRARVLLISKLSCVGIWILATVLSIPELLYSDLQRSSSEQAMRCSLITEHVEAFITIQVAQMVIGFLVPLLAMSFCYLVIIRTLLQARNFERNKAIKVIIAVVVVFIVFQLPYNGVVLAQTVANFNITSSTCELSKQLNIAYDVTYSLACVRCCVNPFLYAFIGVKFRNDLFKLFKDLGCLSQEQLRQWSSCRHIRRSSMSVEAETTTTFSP
Put plainly: CCL19-induced calcium mobilization assay, U87.CD4 cells expressing CCR7. In kind it is cell-based. As to conditions: for IC50: CCL19 induced calcium signaling, read-out: IC50 [μM] block CCL19 induced calcium signaling; for Decoy – 0 Active – 1: classification as decoy or active on CCR7. Summed up:
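Calcium mobilization was recorded in U87.CD4 cells stably carrying human CXCR2 (stimulated with CXCL8), CCR7 (stimulated with CCL19) or CCR5. Cells were plated at 20,000 cells/well, cultured overnight at 37°C in 5% CO2, and incubated 45 min at room temperature in the dark before reading.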
(In general: A change in cytosolic calcium serves as a functional read-out for many receptors and channels.)

Some results are limits rather than exact numbers.

As a reminder, the IC50 is the concentration needed to halve the response being measured.

For the molecule `NC(=O)Nc1cccc(C(=O)NCc2ccccc2Cl)c1` [C173, NC(=O)Nc1cccc(C(=O)NCc2ccccc2Cl)c1], the IC50 was above 50 µM and the “Decoy – 0 Active – 1” value amounted to 0.

Regarding `O=C(COc1ccccc1O)NCc1ccccc1Cl` [C174, O=C(COc1ccccc1O)NCc1ccccc1Cl], the IC50 is above 50 µM and the “Decoy – 0 Active – 1” value came to 0.

Regarding `CC1(O)CN(C(=O)c2cc3c(Br)cccc3[nH]2)C1` [C175, CC1(O)CN(C(=O)c2cc3c(Br)cccc3[nH]2)C1], the IC50 is above 50 µM and the “Decoy – 0 Active – 1” value is 0.

As for `CC1CN(C(=O)c2cc3c(OC(F)(F)F)cccc3[nH]2)CC(=O)N1` (stereo not drawn) [C176, CC1CN(C(=O)c2cc3c(OC(F)(F)F)cccc3[nH]2)CC(=O)N1], the IC50 is above 50 µM and the “Decoy – 0 Active – 1” value was 0.

Turning to `CC1(C)Cc2nc(C(C)(C)C)ncc2C(NC(=O)c2cc(C(F)(F)F)n[nH]2)C1` (stereo not drawn) [C177, CC1(C)Cc2nc(C(C)(C)C)ncc2C(NC(=O)c2cc(C(F)(F)F)n[nH]2)C1], the IC50 is above 50 µM and the “Decoy – 0 Active – 1” value amounted to 0.

On to `CC1(C)CC(NC(=O)c2cc(O)c3ccccc3c2)C(C)(C)O1` (stereo not drawn) [C178, CC1(C)CC(NC(=O)c2cc(O)c3ccccc3c2)C(C)(C)O1], for which the IC50 is above 50 µM and the “Decoy – 0 Active – 1” value was 0.

For `Cc1cccc(C)c1NC(=O)c1cc(S(N)(=O)=O)c(Cl)cc1O` [C179, Cc1cccc(C)c1NC(=O)c1cc(S(N)(=O)=O)c(Cl)cc1O], the IC50 is above 50 µM and the “Decoy – 0 Active – 1” value is recorded as 0.

As for `O=C(NCc1ccccc1F)N1CCC(c2ccc3c(c2)OCO3)C(O)C1` (stereo not drawn) [C180, O=C(NCc1ccccc1F)N1CCC(c2ccc3c(c2)OCO3)C(O)C1], the IC50 was above 50 µM and the “Decoy – 0 Active – 1” value is 0.

For the molecule `COc1ccc(C(Cc2ccccc2)NC(=O)N2CCC(O)C(F)(F)C2)cc1` (stereo not drawn) [C181, COc1ccc(C(Cc2ccccc2)NC(=O)N2CCC(O)C(F)(F)C2)cc1], the IC50 is above 50 µM and the “Decoy – 0 Active – 1” value was 0.

As to `Cc1cc(C)cc(Nc2c(-c3cccc(O)c3)nc3ncccn23)c1` [C182, Cc1cc(C)cc(Nc2c(-c3cccc(O)c3)nc3ncccn23)c1], the IC50 is above 50 µM and the “Decoy – 0 Active – 1” value turned out to be 0.

As for `O=C(Nc1ccc(Cl)cc1Cl)N1CC(O)C(F)C1` (stereo not drawn) [C183, O=C(Nc1ccc(Cl)cc1Cl)N1CC(O)C(F)C1], the IC50 was above 50 µM and the “Decoy – 0 Active – 1” value turned out to be 0.

Regarding `O=C(Nc1ccc(Cl)cc1Cl)NC(Cc1ccc(O)cc1)C(=O)O` (stereo not drawn) [C184, O=C(Nc1ccc(Cl)cc1Cl)NC(Cc1ccc(O)cc1)C(=O)[O-]], the IC50 is above 50 µM and the “Decoy – 0 Active – 1” value came out at 0.

For the molecule `O=C(O)c1ccc(CNC(=O)C2(c3ccc(Cl)cc3)CCC2)o1` [C185, O=C([O-])c1ccc(CNC(=O)C2(c3ccc(Cl)cc3)CCC2)o1], the IC50 was above 50 µM and the “Decoy – 0 Active – 1” value turned out to be 0.

As for `Cc1ccc(N2C(=O)C3C(C(=O)O)NC(c4ccccc4O)C3C2=O)cc1` (stereo not drawn) [C186, Cc1ccc(N2C(=O)C3C(C(=O)[O-])[NH2+]C(c4ccccc4O)C3C2=O)cc1], the half-inhibitory concentration (IC50) is above 50 µM and the “Decoy – 0 Active – 1” value amounted to 0.

As for `Cc1cccc(-c2cccc(C(=O)N3CC(O)CC3C(=O)O)c2)c1` (stereo not drawn) [C187, Cc1cccc(-c2cccc(C(=O)N3CC(O)CC3C(=O)[O-])c2)c1], the IC50 was above 50 µM and the “Decoy – 0 Active – 1” value is listed as 0.

In the case of `COc1cccc(N2CC(NC(=O)c3cccc4ccccc34)CC2=O)c1` (stereo not drawn) [C188, COc1cccc(N2CC(NC(=O)c3cccc4ccccc34)CC2=O)c1], the IC50 was above 50 µM and the “Decoy – 0 Active – 1” value is on record as 0.

`O=c1oc2ccccc2n1CCCN1CCCC1c1ccc(O)cc1` (stereo not drawn) [C189, O=c1oc2ccccc2n1CCC[NH+]1CCCC1c1ccc(O)cc1]: the IC50 is above 50 µM and the “Decoy – 0 Active – 1” value is reported as 0.

As to `O=C(O)c1nc[nH]c1C(=O)NC(c1ccccc1)c1ccco1` (stereo not drawn) [C190, O=C([O-])c1nc[nH]c1C(=O)NC(c1ccccc1)c1ccco1], the IC50 is above 50 µM and the “Decoy – 0 Active – 1” value was found to be 0.

Regarding `CC(C)C(CO)NC(=O)NC(c1cccc(F)c1F)C(F)(F)F` (stereo not drawn) [C191, CC(C)C(CO)NC(=O)NC(c1cccc(F)c1F)C(F)(F)F], the IC50 was above 50 µM and the “Decoy – 0 Active – 1” value amounted to 0.

With `COc1ccc(CC(C)(O)CNC(=O)NCc2cccc3ccccc23)cc1` (stereo not drawn) [C192, COc1ccc(CC(C)(O)CNC(=O)NCc2cccc3ccccc23)cc1], the IC50 is above 50 µM and the “Decoy – 0 Active – 1” value is on record as 0.

`CC(=O)N1CCCCC1CC(=O)NC1(C)CCc2ccccc2C1` (stereo not drawn) [C193, CC(=O)N1CCCCC1CC(=O)NC1(C)CCc2ccccc2C1]: the IC50 is above 50 µM and the “Decoy – 0 Active – 1” value turned out to be 0.

As to `Cn1c(C2CC(=O)N(c3cccc(C(F)(F)F)c3)C2)nc2ccccc21` (stereo not drawn) [C194, Cn1c(C2CC(=O)N(c3cccc(C(F)(F)F)c3)C2)nc2ccccc21], the 50% inhibitory concentration (IC50) was above 50 µM and the “Decoy – 0 Active – 1” value worked out at 0.

For `O=C(NCC1(c2cccc(F)c2)CCCCC1)c1n[nH]c(=O)[nH]1` [C195, O=C(NCC1(c2cccc(F)c2)CCCCC1)c1n[nH]c(=O)[nH]1], the 50% inhibitory concentration (IC50) is above 50 µM and the “Decoy – 0 Active – 1” value was 0.

`Cc1ccn(C)c(=O)c1NC(=O)NC1CCCc2ccc(Cl)cc21` (stereo not drawn) [C196, Cc1ccn(C)c(=O)c1NC(=O)NC1CCCc2ccc(Cl)cc21]: the IC50 is above 50 µM and the “Decoy – 0 Active – 1” value amounted to 0.

As for `O=C(NC1CC(C(=O)O)c2ccccc21)C1CCCN(C(=O)N2CCCC2)C1` (stereo not drawn) [C197, O=C(NC1CC(C(=O)[O-])c2ccccc21)C1CCCN(C(=O)N2CCCC2)C1], the IC50 is above 50 µM and the “Decoy – 0 Active – 1” value came to 0.

Take `O=C1CC(NC(=O)N2CCCC2c2ccccc2)CN1c1ccccc1` (stereo not drawn) [C198, O=C1CC(NC(=O)N2CCCC2c2ccccc2)CN1c1ccccc1]: the IC50 was above 50 µM and the “Decoy – 0 Active – 1” value is on record as 0.

With `O=C(O)CN1C(=O)NC2(CCCc3ccccc32)C1=O` (stereo not drawn) [C199, O=C([O-])CN1C(=O)NC2(CCCc3ccccc32)C1=O], the IC50 was above 50 µM and the “Decoy – 0 Active – 1” value amounted to 0.

With `CCc1ccc(C(NC(=O)NC2C=CC(CO)C2)C(C)(C)C)o1` (stereo not drawn) [C200, CCc1ccc(C(NC(=O)NC2C=CC(CO)C2)C(C)(C)C)o1], the half-inhibitory concentration (IC50) was above 50 µM and the “Decoy – 0 Active – 1” value is given as 0.

Consider `O=C(NCc1ccccc1N1CCOCC1)c1nc2ccccc2c(=O)[nH]1` [C201, O=C(NCc1ccccc1N1CCOCC1)c1nc2ccccc2c(=O)[nH]1], for which the IC50 is above 50 µM and the “Decoy – 0 Active – 1” value was found to be 0.

As to `O=C(NC1CCCCNC1=O)NC1CCSc2ccccc21` (stereo not drawn) [C202, O=C(NC1CCCCNC1=O)NC1CCSc2ccccc21], the IC50 was above 50 µM and the “Decoy – 0 Active – 1” value is 0.

As for `CCc1cc(C(=O)NCC(O)c2ccc(O)cc2)cc(=O)[nH]1` (stereo not drawn) [C203, CCc1cc(C(=O)NCC(O)c2ccc(O)cc2)cc(=O)[nH]1], the IC50 was above 50 µM and the “Decoy – 0 Active – 1” value stood at 0.

In the case of `O=C1CCC(C(=O)NC(c2ccc(F)cc2)C(F)(F)F)N1` (stereo not drawn) [C204, O=C1CCC(C(=O)NC(c2ccc(F)cc2)C(F)(F)F)N1], the IC50 is above 50 µM and the “Decoy – 0 Active – 1” value worked out at 0.

For `Cc1c(C(=O)NC2CC2c2ccc(F)cc2F)[nH]c2c1C(=O)CCC2` (stereo not drawn) [C205, Cc1c(C(=O)NC2CC2c2ccc(F)cc2F)[nH]c2c1C(=O)CCC2], the IC50 is above 50 µM and the “Decoy – 0 Active – 1” value was 0.

As to `Cc1ccc2c(CCNc3nc4[nH]ncc4c(=O)[nH]3)cn(C)c2c1` [C206, Cc1ccc2c(CCNc3nc4[nH]ncc4c(=O)[nH]3)cn(C)c2c1], the IC50 was above 50 µM and the “Decoy – 0 Active – 1” value is reported as 0.

Take `CCCC1(C(=O)O)CCN(C(=O)c2cccc(C)c2OC)CC1O` (stereo not drawn) [C207, CCCC1(C(=O)[O-])CCN(C(=O)c2cccc(C)c2OC)CC1O]: the IC50 is above 50 µM and the “Decoy – 0 Active – 1” value is 0.

In the case of `O=C(NCC(O)(c1ccccc1)C(F)(F)F)c1cc(=O)c2ccccc2o1` (stereo not drawn) [C208, O=C(NCC(O)(c1ccccc1)C(F)(F)F)c1cc(=O)c2ccccc2o1], the IC50 was above 50 µM and the “Decoy – 0 Active – 1” value is recorded as 0.

As for `O=C(CCCc1c[nH]c2ccccc12)N1CCN(C(=O)CCCc2c[nH]c3ccccc23)CC1` [C209, O=C(CCCc1c[nH]c2ccccc12)N1CCN(C(=O)CCCc2c[nH]c3ccccc23)CC1], the half-maximal inhibitory concentration (IC50) is above 50 µM and the “Decoy – 0 Active – 1” value amounted to 0.

As to `CC(C)(C(=O)NC1CCC(C(=O)O)C1)c1cccc(F)c1` (stereo not drawn) [C210, CC(C)(C(=O)NC1CCC(C(=O)[O-])C1)c1cccc(F)c1], the IC50 was above 50 µM and the “Decoy – 0 Active – 1” value was 0.

As to `Cc1ccc(C(=O)NC2CCC(=O)NC2C)cc1N1CCOCC1` (stereo not drawn) [C211, Cc1ccc(C(=O)NC2CCC(=O)NC2C)cc1N1CCOCC1], the IC50 was above 50 µM and the “Decoy – 0 Active – 1” value came out at 0.

On to `CC(=O)N1CCC2(CC1)CC(C(=O)O)N(C(=O)c1ccc(C)c3ccccc13)C2` (stereo not drawn) [C212, CC(=O)N1CCC2(CC1)CC(C(=O)[O-])N(C(=O)c1ccc(C)c3ccccc13)C2], for which the IC50 is above 50 µM and the “Decoy – 0 Active – 1” value was found to be 0.

On to `COc1c[nH]c(C(=O)NC(c2cccnc2)C(F)(F)F)cc1=O` (stereo not drawn) [C213, COc1c[nH]c(C(=O)NC(c2cccnc2)C(F)(F)F)cc1=O], for which the IC50 is above 50 µM and the “Decoy – 0 Active – 1” value turned out to be 0.

For `NC(=O)CN1CC(CCN2CCCC2=O)c2ccccc21` (stereo not drawn) [C214, NC(=O)CN1CC(CCN2CCCC2=O)c2ccccc21], the half-inhibitory concentration (IC50) was above 50 µM and the “Decoy – 0 Active – 1” value amounted to 0.
